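GI50: concentration for 50% inhibition of growth. TGI is the concentration that stops growth completely.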
Legend:
Test in all cases: DTP human tumour cell line panel, 384-well format
SF-268 CNS = tested on: SF-268 CNS
T-47D breast = tested on: T-47D breast
MALME-3M melanoma = tested on: MALME-3M melanoma
HL-60(TB) leukemia = tested on: HL-60(TB) leukemia
SNB-75 CNS = tested on: SNB-75 CNS
ACHN renal = tested on: ACHN renal
SR leukemia = tested on: SR leukemia
OVCAR-5 ovarian = tested on: OVCAR-5 ovarian
MDA-MB-435 melanoma = tested on: MDA-MB-435 melanoma
M14 melanoma = tested on: M14 melanoma
MDA-MB-231 breast = tested on: MDA-MB-231 breast
HCT-116 colon = tested on: HCT-116 colon
786-0 renal = tested on: 786-0 renal
CAKI-1 renal = tested on: CAKI-1 renal
OVCAR-3 ovarian = tested on: OVCAR-3 ovarian
UACC-62 melanoma = tested on: UACC-62 melanoma
KM12 colon = tested on: KM12 colon
OVCAR-4 ovarian = tested on: OVCAR-4 ovarian
MDA-MB-468 breast = tested on: MDA-MB-468 breast
K-562 leukemia = tested on: K-562 leukemia
RXF 393 renal = tested on: RXF 393 renal
SF-539 CNS = tested on: SF-539 CNS
EKVX NSCLC = tested on: EKVX NSCLC
PC-3 prostate = tested on: PC-3 prostate
SW-620 colon = tested on: SW-620 colon
MCF7 breast = tested on: MCF7 breast
HOP-92 NSCLC = tested on: HOP-92 NSCLC
SK-OV-3 ovarian = tested on: SK-OV-3 ovarian
HS 578T breast = tested on: HS 578T breast
HCT-15 colon = tested on: HCT-15 colon
SF-295 CNS = tested on: SF-295 CNS
SN12C renal = tested on: SN12C renal
IGROV1 ovarian = tested on: IGROV1 ovarian
HT29 colon = tested on: HT29 colon
A549 NSCLC = tested on: A549 NSCLC
U251 glioblastoma = tested on: U251 glioblastoma
A498 renal = tested on: A498 renal
SK-MEL-28 melanoma = tested on: SK-MEL-28 melanoma
BT-549 breast = tested on: BT-549 breast
NCI-H322M lung = tested on: NCI-H322M lung
SK-MEL-2 melanoma = tested on: SK-MEL-2 melanoma
NCI-H226 lung = tested on: NCI-H226 lung
MOLT-4 leukemia = tested on: MOLT-4 leukemia
HOP-62 NSCLC = tested on: HOP-62 NSCLC
OVCAR-8 ovarian = tested on: OVCAR-8 ovarian
NCI-H23 lung = tested on: NCI-H23 lung
SK-MEL-5 melanoma = tested on: SK-MEL-5 melanoma
COLO 205 colon = tested on: COLO 205 colon
NCI-H460 NSCLC = tested on: NCI-H460 NSCLC
DU-145 prostate = tested on: DU-145 prostate
NCI-H522 lung = tested on: NCI-H522 lung
TK-10 renal = tested on: TK-10 renal
UACC-257 melanoma = tested on: UACC-257 melanoma
SNB-19 CNS = tested on: SNB-19 CNS
UO-31 renal = tested on: UO-31 renal

COc1cc(F)c(F)c(Nc2ccc(I)cc2F)c1NS(=O)(=O)C1(CC(O)CO)CC1 (stereo not given)
GI50 (SF-268 CNS): 19.7 µM
TGI (SF-268 CNS): 39.5 µM
GI50 (T-47D breast): 21.2 µM
TGI (T-47D breast): 81.6 µM
GI50 (MALME-3M melanoma): 2.12 µM
TGI (MALME-3M melanoma): 6.94 µM
GI50 (HL-60(TB) leukemia): 6.51 µM
TGI (HL-60(TB) leukemia): 19.4 µM
GI50 (SNB-75 CNS): 15 µM
TGI (SNB-75 CNS): 31.4 µM
GI50 (ACHN renal): 17.1 µM
TGI (ACHN renal): 33.9 µM
GI50 (SR leukemia): 14.5 µM
TGI (SR leukemia): 27.6 µM
GI50 (OVCAR-5 ovarian): 18.2 µM
TGI (OVCAR-5 ovarian): 41 µM
GI50 (MDA-MB-435 melanoma): 6.29 µM
TGI (MDA-MB-435 melanoma): 20.1 µM
GI50 (M14 melanoma): 3.22 µM
TGI (M14 melanoma): 12.5 µM
GI50 (MDA-MB-231 breast): 13.9 µM
TGI (MDA-MB-231 breast): 36.3 µM
GI50 (HCT-116 colon): 14.7 µM
TGI (HCT-116 colon): 28.7 µM
GI50 ([…]-0 renal): 16.9 µM
TGI (786-0 renal): 31.7 µM
GI50 (CAKI-1 renal): 16 µM
TGI (CAKI-1 renal): 70.1 µM
GI50 (OVCAR-3 ovarian): 13.9 µM
TGI (OVCAR-3 ovarian): 27.1 µM
GI50 (UACC-62 melanoma): 3.82 µM
TGI (UACC-62 melanoma): 14 µM
GI50 (KM12 colon): 16.1 µM
TGI (KM12 colon): 30 µM
GI50 (OVCAR-4 ovarian): 19.8 µM
TGI (OVCAR-4 ovarian): 70 µM
GI50 (MDA-MB-468 breast): 13.8 µM
TGI (MDA-MB-468 breast): 32.6 µM
GI50 (K-562 leukemia): 14.3 µM
TGI (K-562 leukemia): 27.7 µM
GI50 (RXF 393 renal): 13.4 µM
TGI (RXF 393 renal): 26.9 µM
GI50 (SF-539 CNS): 15 µM
TGI (SF-539 CNS): 29.5 µM
GI50 (EKVX NSCLC): 19.5 µM
TGI (EKVX NSCLC): 44.4 µM
GI50 (PC-3 prostate): 16.3 µM
TGI (PC-3 prostate): 30.3 µM
GI50 (SW-620 colon): 15.6 µM
TGI (SW-620 colon): 41.3 µM
GI50 (MCF7 breast): 14.8 µM
TGI (MCF7 breast): 30.4 µM
GI50 (HOP-92 NSCLC): 14.7 µM
TGI (HOP-92 NSCLC): 28.6 µM
GI50 (SK-OV-3 ovarian): 21.8 µM
TGI (SK-OV-3 ovarian): 56.9 µM
GI50 (HS 578T breast): 14.8 µM
TGI (HS 578T breast): 28.1 µM
GI50 (HCT-15 colon): 20.5 µM
TGI (HCT-15 colon): 48.9 µM
GI50 (SF-295 CNS): 16.1 µM
TGI (SF-295 CNS): 30.4 µM
GI50 (SN12C renal): 16.9 µM
TGI (SN12C renal): 35.3 µM
GI50 (IGROV1 ovarian): 14.5 µM
TGI (IGROV1 ovarian): 31.5 µM
GI50 (HT29 colon): 10.4 µM
TGI (HT29 colon): 22.5 µM
GI50 (A549 NSCLC): 20 µM
TGI (A549 NSCLC): 55 µM
GI50 (U251 glioblastoma): 16.6 µM
TGI (U251 glioblastoma): 34.3 µM
GI50 (A498 renal): 16.1 µM
TGI (A498 renal): 31 µM
GI50 (SK-MEL-28 melanoma): 3.18 µM
TGI (SK-MEL-28 melanoma): 13.3 µM
GI50 (BT-549 breast): 14.1 µM
TGI (BT-549 breast): 27.2 µM
GI50 (NCI-H322M lung): 26 µM
TGI (NCI-H322M lung): 59.3 µM
GI50 (SK-MEL-2 melanoma): 12.9 µM
TGI (SK-MEL-2 melanoma): 25.6 µM
GI50 (NCI-H226 lung): 14.6 µM
TGI (NCI-H226 lung): 31.9 µM
GI50 (MOLT-4 leukemia): 14.1 µM
TGI (MOLT-4 leukemia): 27.1 µM
GI50 (HOP-62 NSCLC): 14.2 µM
TGI (HOP-62 NSCLC): 29.1 µM
GI50 (OVCAR-8 ovarian): 23.1 µM
TGI (OVCAR-8 ovarian): 58.3 µM
GI50 (NCI-H23 lung): 13.7 µM
TGI (NCI-H23 lung): 32.4 µM
GI50 (SK-MEL-5 melanoma): 7.62 µM
TGI (SK-MEL-5 melanoma): 20.5 µM
GI50 (COLO 205 colon): 6.9 µM
TGI (COLO 205 colon): 24.1 µM
GI50 (NCI-H460 NSCLC): 16.2 µM
TGI (NCI-H460 NSCLC): 30.3 µM
GI50 (DU-145 prostate): 18.1 µM
TGI (DU-145 prostate): 37.4 µM
GI50 (NCI-H522 lung): 15.4 µM
TGI (NCI-H522 lung): 29.4 µM
GI50 (TK-10 renal): 20.6 µM
TGI (TK-10 renal): 53.8 µM
GI50 (UACC-257 melanoma): 4.81 µM
TGI (UACC-257 melanoma): 18.1 µM
GI50 (SNB-19 CNS): 22.3 µM
TGI (SNB-19 CNS): 62.9 µM
GI50 (UO-31 renal): 13.4 µM
TGI (UO-31 renal): 32.2 µM
